Source: patent US20250129078A1, “ERBB2 INHIBITORS” (Cogent Biosciences, Inc., priority 2023, published 2025)

Experiments:
[1] = target: ErbB2 V777L (Homo sapiens (Human), UniProt P04626, V777L); test: ErbB enzyme assay (CisBio HTRF-KinEASE-TK), ErbB2 V777L; assay type: biochemical
Summary of the method: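 HTRF KinEASE-TK tyrosine-kinase read-out of substrate phosphorylation after a final 1 h at ambient temperature, from the 655/620 nm emission ratio.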

[2] = target: EGFR WT (Homo sapiens (Human), UniProt P00533); test: ErbB enzyme assay (CisBio HTRF-KinEASE-TK), EGFR WT; assay type: biochemical; conditions: ATP at Km (25 μM), 1 h incubation
Sequence of EGFR WT (P00533 25-1210): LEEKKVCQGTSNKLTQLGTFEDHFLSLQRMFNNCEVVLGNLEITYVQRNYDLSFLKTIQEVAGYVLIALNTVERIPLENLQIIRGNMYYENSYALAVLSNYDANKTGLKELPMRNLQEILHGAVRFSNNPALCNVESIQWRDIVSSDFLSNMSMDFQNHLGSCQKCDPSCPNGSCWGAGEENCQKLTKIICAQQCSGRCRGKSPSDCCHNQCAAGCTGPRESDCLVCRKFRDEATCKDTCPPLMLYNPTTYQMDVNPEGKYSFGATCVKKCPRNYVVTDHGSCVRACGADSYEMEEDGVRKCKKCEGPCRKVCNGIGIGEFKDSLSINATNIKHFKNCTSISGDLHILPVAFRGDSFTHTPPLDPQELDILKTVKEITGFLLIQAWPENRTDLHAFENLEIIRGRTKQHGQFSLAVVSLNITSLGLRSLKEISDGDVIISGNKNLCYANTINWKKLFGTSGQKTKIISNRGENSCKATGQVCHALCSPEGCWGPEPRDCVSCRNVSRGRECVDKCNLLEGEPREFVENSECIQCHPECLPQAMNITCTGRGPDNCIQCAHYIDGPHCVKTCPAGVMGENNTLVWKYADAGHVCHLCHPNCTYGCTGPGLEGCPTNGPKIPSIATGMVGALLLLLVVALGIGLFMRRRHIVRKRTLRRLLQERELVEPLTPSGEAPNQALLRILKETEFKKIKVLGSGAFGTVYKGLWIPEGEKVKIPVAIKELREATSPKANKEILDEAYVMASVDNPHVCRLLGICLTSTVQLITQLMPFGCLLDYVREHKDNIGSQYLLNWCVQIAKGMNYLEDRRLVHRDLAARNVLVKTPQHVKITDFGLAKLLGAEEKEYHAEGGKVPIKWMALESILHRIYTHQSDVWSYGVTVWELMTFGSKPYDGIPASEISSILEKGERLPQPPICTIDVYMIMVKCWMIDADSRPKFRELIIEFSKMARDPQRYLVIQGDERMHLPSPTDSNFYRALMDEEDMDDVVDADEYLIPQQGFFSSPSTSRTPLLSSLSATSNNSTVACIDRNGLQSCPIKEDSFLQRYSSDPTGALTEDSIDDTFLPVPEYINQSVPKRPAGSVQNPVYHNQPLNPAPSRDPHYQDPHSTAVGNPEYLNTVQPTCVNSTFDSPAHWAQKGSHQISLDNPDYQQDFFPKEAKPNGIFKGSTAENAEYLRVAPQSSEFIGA
Summary of the method: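 Three-fold DMSO serial dilutions were added to kinase reactions and incubated 1 h at room temperature. Quench used 62.5 nM Sa-XL665 plus 0.25×TK-Ab-Cryptate in detection buffer, followed by another 1 h. Substrate phosphorylation was then measured by dual-wavelength HTRF.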

Sequence of ErbB2 V777L (P04626 23-1255 V777L): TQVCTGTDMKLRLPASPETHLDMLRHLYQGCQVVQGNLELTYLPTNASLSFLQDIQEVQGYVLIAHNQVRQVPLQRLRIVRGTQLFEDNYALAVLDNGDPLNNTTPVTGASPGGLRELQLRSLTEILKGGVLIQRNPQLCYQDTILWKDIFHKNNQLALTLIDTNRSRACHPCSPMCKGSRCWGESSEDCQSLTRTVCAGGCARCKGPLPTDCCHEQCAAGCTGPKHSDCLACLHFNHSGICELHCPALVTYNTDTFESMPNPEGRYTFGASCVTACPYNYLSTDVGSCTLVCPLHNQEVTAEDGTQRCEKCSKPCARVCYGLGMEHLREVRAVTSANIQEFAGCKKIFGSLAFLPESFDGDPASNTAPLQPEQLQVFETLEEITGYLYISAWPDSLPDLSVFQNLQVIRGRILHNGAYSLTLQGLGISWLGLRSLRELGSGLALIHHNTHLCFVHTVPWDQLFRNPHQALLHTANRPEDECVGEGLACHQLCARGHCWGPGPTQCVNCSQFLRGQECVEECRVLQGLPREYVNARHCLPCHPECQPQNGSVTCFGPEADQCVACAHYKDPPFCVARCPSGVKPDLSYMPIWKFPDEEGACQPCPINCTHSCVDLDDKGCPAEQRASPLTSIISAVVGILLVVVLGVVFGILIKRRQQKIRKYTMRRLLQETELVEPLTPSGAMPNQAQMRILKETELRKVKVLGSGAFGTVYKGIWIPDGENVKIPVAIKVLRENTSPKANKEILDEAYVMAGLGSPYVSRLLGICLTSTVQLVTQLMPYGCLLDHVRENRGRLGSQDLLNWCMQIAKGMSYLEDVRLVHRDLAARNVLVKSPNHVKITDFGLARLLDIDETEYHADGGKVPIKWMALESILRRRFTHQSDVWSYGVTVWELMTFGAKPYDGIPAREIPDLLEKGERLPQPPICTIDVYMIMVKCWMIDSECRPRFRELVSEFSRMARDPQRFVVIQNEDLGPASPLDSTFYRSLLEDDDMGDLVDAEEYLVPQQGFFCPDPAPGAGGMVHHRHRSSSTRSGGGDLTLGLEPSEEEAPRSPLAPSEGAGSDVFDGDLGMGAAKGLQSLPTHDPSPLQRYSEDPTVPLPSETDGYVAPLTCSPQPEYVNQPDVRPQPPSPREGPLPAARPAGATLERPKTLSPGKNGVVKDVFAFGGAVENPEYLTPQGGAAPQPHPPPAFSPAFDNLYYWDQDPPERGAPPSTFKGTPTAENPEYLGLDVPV

SMILES | IC50 [1] [nM] | IC50 [2] [nM]
C=CC(=O)N1CCN(c2ncc3ncnc(Nc4ccc(Oc5cc6nnn(C)c6c(C)c5F)c(C)c4F)c3n2)C[C@H]1C [Compound 180, (R)-1-(4-(8-((2-fluoro-4-((6-fluoro-1,7-dimethyl-1H-benzo[d][1,2,3]triazol-5-yl)oxy)-3-methylphenyl)amino)pyrimido[5,4-d]pyrimidin-2-y1)-2-methylpiperazin-1-yl)prop-2-en-1-one] | 50 to 100 | 50 to 100
C=CC(=O)N1C[C@@H](C)N(c2ncc3ncnc(Nc4ccc(Oc5ccc6c(c5)nnn6C)c(C)c4)c3n2)C[C@H]1C [Compound 186, 1-((2R,5R)-2,5-dimethyl-4-(8-((3-methyl-4-((1-methyl-1H-benzo[d][1,2,3]triazol-5-yl)oxy)phenyl)amino)pyrimido[5,4-d]pyrimidin-2-yl)piperazin-1-yl)prop-2-en-1-one] | 100 to 500 | ≥ 1000
C=CC(=O)N1C[C@H](C)N(c2ncc3ncnc(Nc4ccc(Oc5ccc6c(c5)nnn6C)c(C)c4)c3n2)C[C@@H]1C [Compound 187, 1-((2S,5S)-2,5-dimethyl-4-(8-((3-methyl-4-((1-methyl-1H-benzo[d][1,2,3]triazol-5-yl)oxy)phenyl)amino)pyrimido[5,4-d]pyrimidin-2-yl)piperazin-1-yl)prop-2-en-1-one] | 50 to 100 | 100 to 500
C=CC(=O)N1C[C@@H](C)N(c2ncc3ncnc(Nc4ccc(Oc5ccc6c(c5)nnn6C)c(C)c4)c3n2)C[C@@H]1C [Compound 188, 1-((2S,5R)-2,5-dimethyl-4-(8-((3-methyl-4-((1-methyl-1H-benzo[d][1,2,3]triazol-5-yl)oxy)phenyl)amino)pyrimido[5,4-d]pyrimidin-2-yl)piperazin-1-yl)prop-2-en-1-one] | 500 to 1000 | ≥ 1000
C=CC(=O)N1CCN(c2ncc3ncnc(Nc4ccc(Oc5ccc6c(c5)nnn6C)c(C)c4)c3n2)[C@@H]2CC[C@H]21 [Compound 189, 1-((1R,6R)-5-(8-((3-methyl-4-((1-methyl-1H-benzo[d][1,2,3]triazol-5-yl)oxy)phenyl)amino)pyrimido[5,4-d]pyrimidin-2-y1)-2,5-diazabicyclo[4.2.0]octan-2-yl)prop-2-en-1-one] | 100 to 500 | 500 to 1000
C=CC(=O)N1CCN(c2ncc3ncnc(Nc4ccc(Oc5ccc6c(nnn6C)c5F)c(C)c4)c3n2)CC1 [Compound 191, 1-(4-(8-((4-((4-fluoro-1-methyl-1H-benzo[d][1,2,3]triazol-5-yl)oxy)-3-methylphenyl)amino)pyrimido[5,4-d]pyrimidin-2-yl)piperazin-1-yl)prop-2-en-1-one] | 50 to 100 | 50 to 100
C=CC(=O)N1CCN(c2ncc3ncnc(Nc4ccc(Oc5ccc6c(c5)nnn6C)c(C)c4)c3n2)C[C@H]1C1CC1 [Compound 196, (R)-1-(2-cyclopropyl-4-(8-((3-methyl-4-((1-methyl-1H-benzo[d][1,2,3]triazol-5-yl)oxy)phenyl)amino)pyrimido[5,4-d]pyrimidin-2-yl)piperazin-1-yl)prop-2-en-1-one] | 100 to 500 | 500 to 1000
C=CC(=O)N[C@H]1[C@@H]2CC[C@H]1CN(c1ncc3ncnc(Nc4ccc(Oc5ccc6c(c5)nnn6C)c(C)c4)c3n1)C2 [Compound 205, N-((1R,5S,8r)-3-(8-((3-methyl-4-((1-methyl-1H-benzo[d][1,2,3]triazol-5-yl)oxy)phenyl)amino)pyrimido[5,4-d]pyrimidin-2-yl)-3-azabicyclo[3.2.1]octan-8-yl)acrylamide] | ≥ 1000 | ≥ 1000
C=CC(=O)N[C@@H]1[C@@H]2CC[C@H]1CN(c1ncc3ncnc(Nc4ccc(Oc5ccc6c(c5)nnn6C)c(C)c4)c3n1)C2 [Compound 206, N-((1R,5S,8s)-3-(8-((3-methyl-4-((1-methyl-1H-benzo[d][1,2,3]triazol-5-yl)oxy)phenyl)amino)pyrimido[5,4-d]pyrimidin-2-yl)-3-azabicyclo[3.2.1]octan-8-yl)acrylamide] | 50 to 100 | 100 to 500
C=C(F)C(=O)N1CC(F)(F)C12CN(c1ncc3ncnc(Nc4ccc(Oc5ccc6c(c5)nnn6C)c(C)c4)c3n1)C2 [Compound 209, 1-(3,3-difluoro-6-(8-((3-methyl-4-((1-methyl-1H-benzo[d][1,2,3]triazol-5-yl)oxy)phenyl)amino)pyrimido [5,4-d]pyrimidin-2-yl)-1,6-diazaspiro[3.3]heptan-1-yl)-2-fluoroprop-2-en-1-one] | 50 to 100 | 50 to 100
Cc1cc(Nc2ncnc3cnc(N4CCN(C(=O)/C=C/CF)CC4)nc23)ccc1Oc1ccc2c(c1)nnn2C [Compound 210, (E)-4-fluoro-1-(4-(8-((3-methyl-4-((1-methyl-1H-benzo[d][1,2,3]triazol-5-yl)oxy)phenyl)amino)pyrimido [5,4-d]pyrimidin-2-yl)piperazin-1-yl)but-2-en-1-one] | 50 to 100 | 100 to 500
C=C(COC)C(=O)NC1CCN(c2ncc3ncnc(Nc4ccc(Oc5ccc6c(c5)nnn6C)c(C)c4)c3n2)CC1 [Compound 212, 2-(methoxymethyl)-N-(1-(8-((3-methyl-4-((1-methyl-1H-benzo[d][1,2,3]triazol-5-yl)oxy)phenyl)amino)pyrimido [5,4-d]pyrimidin-2-yl)piperidin-4-yl)acrylamide] | 50 to 100 | 100 to 500
C=C(COC)C(=O)N1CC(F)(F)C12CN(c1ncc3ncnc(Nc4ccc(Oc5ccc6c(c5)nnn6C)c(C)c4)c3n1)C2 [Compound 214, 1-(3,3-difluoro-6-(8-((3-methyl-4-((1-methyl-1H-benzo[d][1,2,3]triazol-5-yl)oxy)phenyl)amino)pyrimido [5,4-d]pyrimidin-2-yl)-1,6-diazaspiro[3.3]heptan-1-yl)-2-(methoxymethyl) prop-2-en-1-one] | 100 to 500 | 500 to 1000
C=CC(=O)N1CC(F)(F)C12CN(c1ncc3ncnc(Nc4ccc(Oc5ccc6c(c5)nnn6C)c(C)c4)c3n1)C2 [Compound 221, 1-(3,3-difluoro-6-(8-((3-methyl-4-((1-methyl-1H-benzo[d][1,2,3]triazol-5-yl)oxy)phenyl)amino)pyrimido[5,4-d]pyrimidin-2-yl)-1,6-diazaspiro[3.3]heptan-1-yl)prop-2-en-1-one] | 50 to 100 | < 50
C=CC(=O)N1CCC12CCN(c1ncc3ncnc(Nc4ccc(Oc5ccc6c(c5)nnn6C)c(C)c4)c3n1)C2 (stereo not shown) [Compound 222, 1-(6-(8-((3-methyl-4-((1-methyl-1H-benzo[d][1,2,3]triazol-5-yl)oxy)phenyl)amino)pyrimido[5,4-d]pyrimidin-2-yl)-1,6-diazaspiro[3.4]octan-1-yl)prop-2-en-1-one] | 50 to 100 | 50 to 100
C=CC(=O)N1CCC[C@@H](N(C)c2ncc3ncnc(Nc4ccc(Oc5ccc6c(c5)nnn6C)c(C)c4)c3n2)C1 [Compound 223, (R)-1-(3-(methyl(8-((3-methyl-4-((1-methyl-1H-benzo[d][1,2,3]triazol-5-yl)oxy)phenyl)amino)pyrimido[5,4-d]pyrimidin-2-yl)amino)piperidin-1-yl)prop-2-en-1-one] | 100 to 500 | 500 to 1000
C=CC(=O)N1CCC[C@H](N(C)c2ncc3ncnc(Nc4ccc(Oc5ccc6c(c5)nnn6C)c(C)c4)c3n2)C1 [Compound 224, (S)-1-(3-(methyl(8-((3-methyl-4-((1-methyl-1H-benzo[d][1,2,3]triazol-5-yl)oxy)phenyl)amino)pyrimido[5,4-d]pyrimidin-2-yl)amino)piperidin-1-yl)prop-2-en-1-one] | 50 to 100 | 100 to 500
